From patent publication US12440496B2, “Natriuretic peptide receptor a agonists useful for the treatment of cardiometabolic diseases, kidney disease and diabetes” (Merck Sharp & Dohme LLC, priority 2019, dated 2025)
Where a name gives a salt, the structure may show the parent alone.

Target: T1, hNPRA (Homo sapiens, UniProt P16066)
T1 construct: expressed in transfected cells
T1 sequence (P16066 33-1061): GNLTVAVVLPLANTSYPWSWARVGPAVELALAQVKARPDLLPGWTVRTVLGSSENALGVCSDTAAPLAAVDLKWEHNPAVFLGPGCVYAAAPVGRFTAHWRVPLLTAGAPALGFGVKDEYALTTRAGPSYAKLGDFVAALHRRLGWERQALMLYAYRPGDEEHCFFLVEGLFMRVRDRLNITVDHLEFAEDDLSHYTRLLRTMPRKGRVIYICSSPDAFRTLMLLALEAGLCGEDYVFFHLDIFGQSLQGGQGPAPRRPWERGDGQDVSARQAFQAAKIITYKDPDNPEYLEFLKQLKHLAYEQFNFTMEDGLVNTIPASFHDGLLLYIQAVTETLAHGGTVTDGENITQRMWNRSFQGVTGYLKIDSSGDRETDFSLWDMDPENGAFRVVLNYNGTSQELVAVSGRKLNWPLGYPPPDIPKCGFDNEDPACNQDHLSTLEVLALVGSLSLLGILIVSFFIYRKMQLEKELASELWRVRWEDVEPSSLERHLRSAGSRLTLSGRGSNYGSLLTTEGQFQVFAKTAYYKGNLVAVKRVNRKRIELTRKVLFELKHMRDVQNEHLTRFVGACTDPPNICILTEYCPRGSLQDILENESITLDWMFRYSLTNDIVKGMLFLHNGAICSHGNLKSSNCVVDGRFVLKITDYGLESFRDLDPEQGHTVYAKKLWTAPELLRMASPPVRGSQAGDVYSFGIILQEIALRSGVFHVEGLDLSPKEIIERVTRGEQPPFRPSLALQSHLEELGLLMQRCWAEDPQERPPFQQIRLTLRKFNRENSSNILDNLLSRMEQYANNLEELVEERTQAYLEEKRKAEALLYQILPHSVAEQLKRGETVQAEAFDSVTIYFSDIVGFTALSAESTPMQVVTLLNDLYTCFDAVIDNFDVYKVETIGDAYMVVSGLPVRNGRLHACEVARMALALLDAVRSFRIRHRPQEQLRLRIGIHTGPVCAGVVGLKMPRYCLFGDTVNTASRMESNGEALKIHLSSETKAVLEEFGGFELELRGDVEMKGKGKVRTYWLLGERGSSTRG
Assay: NPRA Functional Cell Assay (cGMP HTRF, NPRA HEK JumpIn stable cells)
Format: cell-based
Conditions: cGMP production, 1 hour at 37° C., 10-point dose response
Summary of the method: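 cGMP HTRF read-out after 1 hour compound treatment at 37° C. of human NPRA-expressing HEK JumpIn cells, 1500 cells/well, in buffer with phosphodiesterase inhibitors IBMX and RO20 (100 uM each). Signal converted to [cGMP] by calibration curve; EC50s fitted by 4-parameter logistic; 50 nM h-ANP as positive response.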

| EC50 | SMILES |
| --- | --- |
| 374 nM | CC(C)(C)[C@H]1CCc2nc3sc(C(=O)N[C@H](CCN4CCC(O)CC4)c4ccc(-c5csc(C(=O)O)c5)cc4)nc3cc2C1 (racemic) [Example 126, 4-[4-[rac-(1R)-3-(4-hydroxy-1-piperidyl)-1-[[rac-(7S)-7-tert-butyl-5,6,7,8-tetrahydrothiazolo[5,4-b]quinoline-2-carbonyl]amino]propyl]phenylthiophene-2-carboxylic acid] |
| 222 nM | CC(C)(C)[C@H]1CCc2nc3sc(C(=O)N[C@H](CCN4CCC(O)(CN)CC4)c4ccc(-c5cnc(O)c(F)c5)cc4)nc3cc2C1 (racemic) [Example 199, [4-hydroxy-1-[rac-(3R)-3-[4-(5-fluoro-6-hydroxy-3-pyridyl)phenyl]-3-[[rac-(7S)-7-tert-butyl-5,6,7,8-tetrahydrothiazolo[5,4-b]quinoline-2-carbonyl]amino]propyl]-4-piperidyl]methylammonium; formate] |
| 2000 nM | CC1(NC(=O)c2cccc([C@@H](CCN3CCC(C(=O)O)CC3)NC(=O)c3nc4cc5c(nc4s3)CC[C@H](C(C)(C)C)C5)c2)CNC1 (racemic) [Example 125, 1-[rac-(3R)-3-[3-[(3-methylazetidin-1-ium-3-yl)carbamoyl]phenyl]-3-[[rac-(7S)-7-tert-butyl-5,6,7,8-tetrahydrothiazolo [5,4-b]quinoline-2-carbonyl]amino]propyl] piperidine-4-carboxylic acid; 2,2,2-trifluoroacetate] |
| 913 nM | Cc1n[nH]cc1-c1ccc([C@@H](CCN2CCC(O)CC2)NC(=O)c2nc3cc4c(nc3s2)CC[C@H](C(C)(C)C)C4)cc1 (racemic) [Example 171, rac-(7S)-7-tert-butyl-N-[rac-(1R)-3-(4-hydroxy-1-piperidyl)-1-[4-(3-methyl-1H-pyrazol-4-yl)phenyl]propyl]-5,6,7,8-tetrahydrothiazolo[5,4-b]quinoline-2-carboxamide] |
| 753 nM | Cn1nccc1-c1ccc([C@@H](CCN2CCCCC2)NC(=O)c2cc3cc4c(nc3s2)CC[C@H](C(C)(C)C)C4)cc1 (racemic) [Example 4, rac-(6S)-6-tert-butyl-N-[rac-(1R)-1-[4-(2-methylpyrazol-3-yl)phenyl]-3-(1-piperidyl)propyl]-5,6,7,8-tetrahydrothieno[2,3-b]quinoline-2-carboxamide] |
| 182 nM | CC(C)(C)[C@H]1CCc2nc3sc(C(=O)N[C@H](CCN4CCC(O)CC4)c4ccc(N5CCOCS5(=O)=O)nc4)nc3cc2C1 [Example 273, (S)-7-(tert-butyl)-N-((R)-1-(6-(3,3-dioxido-1,3,4-oxathiazinan-4-yl)pyridin-3-yl)-3-(4-hydroxypiperidin-1-yl)propyl)-5,6,7,8-tetrahydrothiazolo[5,4-b]quinoline-2-carboxamide] |
| 386 nM | CC(C)(C)[C@H]1CCc2nc3sc(C(=O)N[C@H](CCN[C@H]4C[C@@H](CO)[C@H](O)[C@@H]4O)c4ccc(-c5ccc(=O)[nH]c5)cc4)cc3cc2C1 (racemic) [Example 26, [rac-(1S,2R,3S,4S)-2,3-dihydroxy-4-(hydroxymethyl)cyclopentyl]-[rac-(3R)-3-[4-(6-oxo-1H-pyridin-3-yl)phenyl]-3-[rac-(6S)-6-tert-butyl-5,6,7,8-tetrahydrothieno[2,3-b]quinoline-2-carbonyl]amino]propyl] ammonium;formate] |
| 725 nM | CC1([C@H]2CCc3nc4sc(C(=O)N[C@H](CCN5CCC(O)CC5)c5ccc(N6CCOC6=O)cc5)nc4cc3C2)CC1 [Example 231, (S)-N-((R)-3-(4-hydroxypiperidin-1-yl)-1-(4-(2-oxooxazolidin-3-yl)phenyl)propyl)-7-(1-methylcyclopropyl)-5,6,7,8-tetrahydrothiazolo[5,4-b]quinoline-2-carboxamide] |
| 1210 nM | CC(C)(C)[C@H]1CCc2nc3sc(C(=O)N[C@H](CCN4CCC(O)CC4)c4cccc(NC(=O)CCN)c4)nc3cc2C1 (racemic) [Example 119, [3-oxo-3-[3-[rac-(1R)-3-(4-hydroxy-1-piperidyl)-1-[[rac-(7S)-7-tert-butyl-5,6,7,8-tetrahydrothiazolo [5,4-b]quinoline-2-carbonyl]amino]propyl]anilino]propyl]ammonium; 2,2,2-trifluoroacetate] |
| 243 nM | CN(C)CC1(O)CCN(CC[C@@H](NC(=O)c2nc3cc4c(nc3s2)CC[C@H](C(C)(C)C)C4)c2ccc(-c3cnc(O)c(F)c3)cc2)CC1 (racemic) [Example 200, rac-(7S)-7-tert-butyl-N-[rac-(1R)-3-[4-[(dimethylamino)methyl]-4-hydroxy-piperidin-1-ium-1-yl]-1-[4-(5-fluoro-6-hydroxy-3-pyridyl)phenyl]propyl]-5,6,7,8-tetrahydrothiazolo[5,4-b]quinoline-2-carboxamide; formate] |
| 1190 nM | CC(C)(C)[C@H]1CCc2nc3sc(C(=O)N[C@H](CCN4CC[C@H](C(=O)O)[C@@H](F)C4)c4ccc(-c5cnc(O)c(F)c5)cc4)nc3cc2C1 (racemic) [Example 203, rac-(3R,4R)-3-fluoro-1-[rac-(3R)-3-[4-(5-fluoro-6-hydroxy-3-pyridyl)phenyl]-3-[[rac-(7S)-7-tert-butyl-5,6,7,8-tetrahydrothiazolo[5,4-b]quinoline-2-carbonyl]amino]propyl]piperidin-1-ium-4-carboxylic acid; formate] |
| 176 nM | CC(C)(C)[C@H]1CCc2nc3sc(C(=O)N[C@H](CCN4CCC(O)CC4)c4cccc(C(=O)N[C@H]5CNC[C@@H]5O)c4)nc3cc2C1 (racemic) [Example 137, rac-(7S)-7-tert-butyl-N-[rac-(1R)-3-(4-hydroxy-1-piperidyl)-1-[3-[[rac-(3S,4S)-4-hydroxypyrrolidin-3-yl]carbamoyl]phenyl]propyl]-5,6,7,8-tetrahydrothiazolo[5,4-b]quinoline-2-carboxamide] |
| 673 nM | CC1(CN)CN(CC[C@@H](NC(=O)c2cc3cc4c(nc3s2)CC[C@H](C(C)(C)C)C4)c2ccc(-c3ccc(=O)[nH]c3)cc2)C1 (racemic) [Example 46, [3-methyl-1-[rac-(3R)-3-[4-(6-oxo-1H-pyridin-3-yl)phenyl]-3-[[rac-(6S)-6-tert-butyl-5,6,7,8-tetrahydrothieno[2,3-b]quinoline-2-carbonyl]amino]propyl]azetidin-3-yl]methylammonium;formate] |
| 248 nM | CC(C)[C@]1(F)CCc2nc3sc(C(=O)N[C@H](CCN4CCC(O)CC4)c4ccc(-c5ccnnc5)nc4)nc3cc2C1 [Example 265, (S)-7-fluoro-N-((R)-3-(4-hydroxypiperidin-1-yl)-1-(6-(pyridazin-4-yl)pyridin-3-yl)propyl)-7-isopropyl-5,6,7,8-tetrahydrothiazolo[5,4-b]quinoline-2-carboxamide] |
| 718 nM | CC(C)(C)[C@H]1CCc2nc3sc(C(=O)N[C@H](CCN4CCCCC4)c4cccc(NS(C)(=O)=O)c4)cc3cc2C1 (racemic) [Example 11, ammonium; methylsulfonyl-[3-[rac-(1R)-3-(1-piperidyl)-1-[rac-(6S)-6-tert-butyl-5,6,7,8-tetrahydrothieno[2,3-b]quinoline-2-carbonyl]amino]propyl]phenyl] azanide] |
| 305 nM | CC(C)(C)[C@H]1CCc2nc3sc(C(=O)N[C@H](CCN4CCC(O)CC4)c4ccc(-c5cc(F)c(O)cn5)cc4)nc3cc2C1 [Example 228, (S)-7-(tert-butyl)-N-((R)-1-(4-(4-fluoro-5-hydroxypyridin-2-yl)phenyl)-3-(4-hydroxypiperidin-1-yl)propyl)-5,6,7,8-tetrahydrothiazolo[5,4-b]quinoline-2-carboxamide] |
| 446 nM | CN(C)C1CCN(CCC(NC(=O)c2cc3cc4c(nc3s2)CCC(C(C)(C)C)C4)c2ccc(-c3ccc(=O)[nH]c3)cc2)CC1 (racemic) [Example 28, dimethyl-[1-[rac-(3R)-3-[4-(6-oxo-1H-pyridin-3-yl)phenyl]-3-[[rac-(6S)-6-tert-butyl-5,6,7,8-tetrahydrothieno[2,3-b]quinoline-2-carbonyl]amino]propyl]-4-piperidyl]ammonium;formate] |
| 681 nM | CC(C)(C)[C@H]1CCc2nc3sc(C(=O)N[C@H](CCN4CCC(O)CC4)c4ccc(-n5ccnc5)cc4)nc3cc2C1 (racemic) [Example 83, rac-(7S)-7-tert-butyl-N-[rac-(1R)-3-(4-hydroxy-piperidin-1-ium-1-yl)-1-(4-imidazol-1-ylphenyl)propyl]-5,6,7,8-tetrahydro-thiazolo[5,4-b] quinoline-2-carboxamide; 2,2,2-trifluoroacetate] |
